Test results taken from patent US9295673B2, “Combination of mTOR inhibitors and P13-kinase inhibitors, and uses thereof” (Intellikine LLC, priority 2011, dated 2016).

tested on: PC3; experiment: PC3 proliferation (Alamar Blue); type: cell-based; conditions: Homo sapiens, PC-3; PC3 cells

Row | IC50 [nM] | SMILES
1 | < 10000 | Nc1nc2cc(-c3ccc4ncc(C(=O)N5CC(N6CC[C@H](O)C6)C5)n4c3)ccc2o1 [Compound 469]
2 | < 10000 | C[C@@H]1CN(C2CN(C(=O)c3cnc4ccc(-c5ccc6oc(N)nc6c5)cn34)C2)CCN1 [Compound 511]
3 | < 1000 | O=C(c1cnc2ccc(-c3cnc(Cl)c(NS(=O)(=O)c4ccc(F)cc4)c3)cn12)N1CCOCC1 [Compound 457]
4 | < 10000 | CN1CCC(n2cnc3ccc(-c4cnc(Cl)c(NS(C)(=O)=O)c4)cc3c2=O)CC1 [Compound 526]
5 | < 10000 | CN(C(=O)c1cnc2ccc(-c3ccc4oc(N)nc4c3)cn12)C1CCOCC1 [Compound 472]
6 | < 1000 | C[C@@H]1CN(C2CN(C(=O)c3cnc4ccc(-c5ccc6oc(N)nc6c5)cn34)C2)CCN1C [Compound 508]
7 | < 10000 | C[C@H]1CN(C2CN(C(=O)c3cnc4ccc(-c5ccc6oc(N)nc6c5)cn34)C2)CCN1 [Compound 510]
8 | < 1000 | O=C(c1cnc2ccc(-c3cnc(Cl)c(NS(=O)(=O)c4ccccc4)c3)cn12)N1CCOCC1 [Compound 451]
9 | < 10000 | Nc1nc2cc(-c3ccc4ncc(C(=O)N5CCC(F)(F)C5)n4c3)ccc2o1 [Compound 471]
10 | < 1000 | O=C(c1cnc2ccc(-c3cnc(Cl)c(NS(=O)(=O)c4cccc(F)c4)c3)cn12)N1CCOCC1 [Compound 458]
11 | < 10000 | CC(C)N1CCC(n2cnc3ccc(-c4cnc(Cl)c(NS(C)(=O)=O)c4)cc3c2=O)CC1 [Compound 523]
12 | < 10000 | O=C(c1cnc2ccc(-c3cnc(Cl)c(NS(=O)(=O)c4ccccc4F)c3)cn12)N1CCOCC1 [Compound 452]
13 | < 1000 | Nc1nc2cc(-c3ccc4ncc(C(=O)N5CC[C@H](n6cccn6)C5)n4c3)ccc2o1 [Compound 478]
14 | < 10000 | C[C@H]1COCCN1C(=O)c1cnc2ccc(-c3ccc4oc(N)nc4c3)cn12 [Compound 483]
15 | < 1000 | COc1ncc(-c2ccc3ncc(C(=O)N4CCOCC4)n3c2)cc1NS(=O)(=O)c1cccnc1 [Compound 462]
16 | < 1000 | COc1ncc(-c2ccc3ncn(C4CCN(C(C)C)CC4)c(=O)c3c2)cc1NS(=O)(=O)c1ccccc1 [Compound 522]
17 | < 1000 | C[C@H]1CN(C2CN(C(=O)c3cnc4ccc(-c5ccc6oc(N)nc6c5)cn34)C2)CCN1C [Compound 512]
18 | < 1000 | COc1ncc(-c2ccc3ncn(C4CCN(C)CC4)c(=O)c3c2)cc1NS(=O)(=O)c1ccccc1 [Compound 524]
19 | < 1000 | Nc1nc2cc(-c3ccc4ncc(C(=O)N5CC(F)(F)C5)n4c3)ccc2o1 [Compound 473]
20 | < 10000 | CO[C@@H]1CCN(C(=O)c2cnc3ccc(-c4ccc5oc(N)nc5c4)cn23)C1 [Compound 464]
21 | < 1000 | CC1(C)CN(C2CN(C(=O)c3cnc4ccc(-c5ccc6oc(N)nc6c5)cn34)C2)CCN1 [Compound 515]

Row | SMILES | IC50 [nM]
22 | Nc1nc2cc(-c3ccc4ncc(C(=O)N5C6CCC5COC6)n4c3)ccc2o1 [Compound 480] | < 1000

molecular target: PI3K γ (Homo sapiens, UniProt P48736); experiment: PI 3-Kinase (human) HTRF assay, PI3K γ; conditions: read-out: PI3K γ IC50; in vitro
Sequence (P48736 whole entry): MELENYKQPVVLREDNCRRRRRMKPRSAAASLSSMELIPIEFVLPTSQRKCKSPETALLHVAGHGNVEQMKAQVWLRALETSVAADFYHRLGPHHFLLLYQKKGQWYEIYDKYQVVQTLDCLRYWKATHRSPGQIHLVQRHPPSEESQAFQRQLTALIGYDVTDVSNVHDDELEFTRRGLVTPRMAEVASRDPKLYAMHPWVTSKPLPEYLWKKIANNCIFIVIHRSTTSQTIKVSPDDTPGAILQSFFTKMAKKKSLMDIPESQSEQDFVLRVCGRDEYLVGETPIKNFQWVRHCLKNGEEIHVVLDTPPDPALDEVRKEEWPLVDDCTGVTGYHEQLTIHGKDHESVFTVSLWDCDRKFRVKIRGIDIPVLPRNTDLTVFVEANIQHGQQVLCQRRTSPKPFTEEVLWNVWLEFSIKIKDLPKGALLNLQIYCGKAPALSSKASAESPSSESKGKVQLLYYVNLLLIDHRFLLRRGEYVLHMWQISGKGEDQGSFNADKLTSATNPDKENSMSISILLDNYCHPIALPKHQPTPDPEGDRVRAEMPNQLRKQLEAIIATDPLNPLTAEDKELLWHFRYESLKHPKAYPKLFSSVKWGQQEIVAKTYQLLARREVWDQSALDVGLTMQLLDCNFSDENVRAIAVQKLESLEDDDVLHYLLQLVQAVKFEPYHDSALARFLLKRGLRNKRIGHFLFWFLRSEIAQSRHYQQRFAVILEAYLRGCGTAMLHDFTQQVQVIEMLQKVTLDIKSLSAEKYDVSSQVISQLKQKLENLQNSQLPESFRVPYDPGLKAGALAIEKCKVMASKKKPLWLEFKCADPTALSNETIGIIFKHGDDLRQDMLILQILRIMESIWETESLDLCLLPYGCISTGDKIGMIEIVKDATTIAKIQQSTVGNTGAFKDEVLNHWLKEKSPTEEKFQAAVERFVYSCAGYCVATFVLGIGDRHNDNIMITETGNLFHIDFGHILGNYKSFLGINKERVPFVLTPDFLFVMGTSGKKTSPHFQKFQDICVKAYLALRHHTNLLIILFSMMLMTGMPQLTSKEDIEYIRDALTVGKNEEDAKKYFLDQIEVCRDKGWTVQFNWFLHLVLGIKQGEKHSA

Row | IC50 [µM] | SMILES
23 | < 10 | C[C@@H]1CN(C2CN(C(=O)c3cnc4ccc(-c5ccc6oc(N)nc6c5)cn34)C2)CCN1 [Compound 511]
24 | < 10 | C[C@H]1CN(C2CN(C(=O)c3cnc4ccc(-c5ccc6oc(N)nc6c5)cn34)C2)CCN1C [Compound 512]
